Laboratory results reported in article PMC10526209, “Systematic Exploration of Functional Group Relevance for Anti-Leishmanial Activity of Anisomycin” (Biomedicines, 2023).
Where a name gives a salt, the structure may show the parent alone. Read-outs that look alike come from different tables or passages of the source.

Tests used:
[1] = tested on: rabbit reticulocytes (RR); test: Cell-free transcription-translation inhibition in rabbit reticulocytes; type: biochemical; conditions: inhibition of translation in rabbit reticulocyte lysate, luciferase reporter, 90 min at 30 °C
Procedure: (§1) Cytosolic ribosome susceptibility and selectivity were assessed through three different cell-free transcription-translation assays: (1) An extract of E. coli (S30, Promega, Madison, WI, USA), (2) in rabbit reticulocytes (Promega), and (3) in L. tarentolae lysate (Jena Bioscience, Jena, Germany). Three plasmids, compatible with each extract system, were used in this study: pBESTlucTM (Promega) for the prokaryotic translation assay, Luciferase T7 DNA (Promega) for the reticulocytes, and pLEXSY-invitro2-EGFP (Jena Bioscience) for Leishmania. Firefly luciferase was used as a reporter gene for the bacterial and reticulocyte systems, and EGFP for Leishmania. […] Assays were performed in white polystyrene 96-well flat-bottom plates (Nunc, Roskilde, Denmark) for luciferase and black polystyrene 384-well flat-bottom plates (Greiner, Kremsmunster, Austria) for EGFP. Incubation times were 60 min at 37 °C, 90 min at 30 °C, and 120 min at 26 °C for the bacterial, reticulocyte, and Leishmania systems, respectively. Reactions were stopped by quick snap cooling followed by a 5 min incubation on ice. Luciferase activity was measured for each well following the addition of 50 μL of Luciferase Assay reagent (Promega, Madison, WI, USA) with an automatic reagent injector (Tecan, Mannedorf, Switzerland) by recording the chemical-luminescence signal. EGFP fluorescence (λex = 488 nm; λem = 507 nm) was recorded on a Tecan Infinite R®F200 microplate reader (Tecan). Extracts lacking the circular DNA template were used as a negative control to calculate the fluorescence/chemical luminescence background. Reaction mixtures without compounds were used as positive controls and were regarded as 100% translation. Paromomycin was used as a control reagent in all assays. At least six different concentrations were used to plot each translation inhibition curve; experiments were performed in three independent repeats in duplicate. Half maximal inhibition concentrations (IC50) values were calculated from the concentration-response fitting curves using GraFit7.0.3 software.

[2] = tested on: extract of E. coli (S30); test: Cell-free transcription-translation inhibition in E. coli S30 extract; type: biochemical; conditions: for IC50: inhibition of translation in active cell lysate, luciferase reporter, 60 min at 37 °C; for effect on E. coli (in words): translation assay
Procedure: as §1

[3] = tested on: L. tarentolae lysate; test: Cell-free transcription-translation inhibition in L. tarentolae lysate; type: biochemical; conditions: for IC50: inhibition of translation in active cell lysate, EGFP reporter, 120 min at 26 °C
Procedure: as §1

[4] = tested on: Leishmania major Friedlin; test: Anti-leishmanial activity on promastigotes, L. major Friedlin; type: cell-based; conditions: 72 h, 25 °C
[5] = tested on: host macrophage (BMDM); test: Host macrophage toxicity, MTT survival assay; type: cell-based
[6] = tested on: L. major WT amastigotes in BMDM; test: Drug susceptibility of intracellular amastigotes in infected BMDM, L. major; type: cell-based; conditions: Leishmania major; infected BMDM macrophages, 48 h; read-out: EC50 against amastigotes of L. major
Procedure: (§2) The effect of isopropyl ether 22a on the amastigote intracellular form of Leishmania was determined by the measurement of EC50 values in cells, as previously described. Briefly, 2.5 × 10^5 bone-marrow-derived macrophages (BMDMs) were plated into the wells of 12-well chamber slides (Ibidi) with complete DMEM medium. A culture of L. infantum or L. major WT promastigotes in stationary phase in a ratio of 1:5 BMDM to parasites was used to infect cells. Infection was carried out for 3 h at 37 °C in DMEM medium with 5% CO2 without drug. After 24 h, increasing concentrations of ether 22a were added to the medium containing the infected macrophages. After 48 h, the slides were fixed in methanol and stained with Diff-Quick solution to facilitate parasite visualization. The number of infecting amastigotes per 100 cells was determined by examining 300 macrophages per triplicate assay and normalized to the untreated control. EC50 values in the amastigote form were calculated based on dose–response curves that were analyzed by non-linear regression using the GraphPad Prism 9.0 software. An average of three independent biological replicates was used to perform the analyses.

[7] = tested on: Leishmania infantum (MHOM/MA/67/ITMAP-263) wild-type strain; test: Anti-leishmanial activity on promastigotes, L. infantum WT; type: cell-based; conditions: 72 h, 25 °C
Procedure: (§3) The L. infantum (MHOM/MA/67/ITMAP-263) wild-type strain (WT), as well as the resistant mutants Sb2000.1, AmB1000.1, and MF200.5 [29, 30, 31, 32, 33], which are respectively resistant to antimony (Sb^III), amphotericin B (AmB), and miltefosine (MF), were grown in M199 medium at 25 °C supplemented with 10% fetal bovine serum, 5 μg/mL of haemin at pH 7.0, 2000 μM Sb (Potassium antimonyl tartrate trihydrate, Sigma-Aldrich, Saint Louis, MO, USA), 200 μM of MF (Miltefosine, Cayman Chem, Ann Arbor, MI, USA) or 1 μM AmB (Amphotericin B solution, Sigma-Aldrich, Saint Louis, MO, USA). Leishmanicidal values were determined in Leishmania promastigotes by monitoring the replication of parasites after 72 h of incubation at 25 °C in the presence of increasing concentrations of the different compounds by measuring A600 using a Cytation 5 machine (BioTek-Agilent, Santa Clara, CA 9, USA). EC50 values were calculated based on dose–response curves analyzed by non-linear regression with GraphPad Prism 10.0 software (GraphPad Software, La Jolla, CA, USA). An average of at least three independent biological replicates were performed for each determination.

[8] = tested on: Leishmania infantum (MHOM/MA/67/ITMAP-263) resistant to 2 mM trivalent (and pentavalent) antimonials; test: Anti-leishmanial activity on promastigotes, antimony-resistant L. infantum; type: cell-based; conditions: 72 h
Procedure: as §3

[9] = tested on: Leishmania infantum (MHOM/MA/67/ITMAP-263) resistant to 1 µM amphotericin B; test: Anti-leishmanial activity on promastigotes, amphotericin B-resistant L. infantum; type: cell-based; conditions: 72 h
Procedure: as §3

[10] = tested on: Leishmania infantum (MHOM/MA/67/ITMAP-263) resistant to 200 µM miltefosine; test: Anti-leishmanial activity on promastigotes, miltefosine-resistant L. infantum; type: cell-based; conditions: 72 h
Procedure: as §3

[11] = tested on: L. infantum WT amastigotes in BMDM; test: Drug susceptibility of intracellular amastigotes in infected BMDM, L. infantum; type: cell-based; conditions: Leishmania infantum; infected BMDM macrophages, 48 h; read-out: EC50 against amastigotes of L. infantum
Procedure: as §2

[12] = Leishmania major, read-out: IC50 (μM) LmF WT
[13] = Leishmania infantum, read-out: IC50 (μM) Ldi WT
[14] = Leishmania infantum, read-out: IC50 (μM) Ldi Sb-Res
[15] = Leishmania infantum, read-out: IC50 (μM) Ldi AmB-Res
[16] = Leishmania infantum, read-out: IC50 (μM) Ldi MF-Res

| Compound | IC50 [1] | IC50 [2] | IC50 [3] | also measured |
| --- | --- | --- | --- | --- |
| COc1ccc(C[C@H]2NC[C@H](O)[C@H]2OC(C)=O)cc1 [Analog 1, Anisomycin] | 0.1 ± 0.02 µM | > 500 µM | 0.55 ± 0.03 µM | effect on E. coli (in words) [2]: no effect |
| COc1ccc(C[C@H]2NC[C@H](O)[C@H]2O)cc1 [Analog 2, (2R,3S,4S)-3,4-dihydroxy-2-(4-methoxybenzyl)-pyrrolidine] | > 1000 µM | > 1000 µM | > 100 µM | – |
| COc1ccc(C[C@@H]2[C@H](OC(C)=O)[C@@H](O)CN2C)cc1 [Analog 8, (2R,3S,4S)-1-methyl-4-hydroxy-2-(4-methoxybenzyl)-pyrrolidin-3-yl acetate] | 25.5 ± 3.6 µM | > 1000 µM | > 100 µM | – |
| COc1ccc(C[C@H]2NC[C@H](OC(C)=O)[C@H]2OC(C)=O)cc1 [Analog 9, (2R,3S,4S)-3,4-diacetoxy-2-(4-methoxybenzyl)-pyrrolidine hydrochloride] | 25.7 ± 8.5 µM | > 1000 µM | > 100 µM | – |
| COc1ccc(C[C@H]2NC[C@H](OC)[C@H]2OC)cc1 [Analog 10, (2R,3S,4S)-3,4-dimethoxy-2-(4-methoxybenzyl)-pyrrolidine hydrochloride] | > 1000 µM | > 1000 µM | > 1000 µM | – |
| COc1ccc(C[C@H]2NC[C@H](O)[C@H]2OC)cc1 [Analog 11, (2R,3S,4S)-3-methoxy-4-hydroxy-2-(4-methoxybenzyl)-pyrrolidine hydrochloride] | 70.9 ± 8.3 µM | > 1000 µM | 24 ± 2.5 µM | – |
| COc1ccc(C[C@H]2NC[C@H](O)[C@H]2OC(C)=O)cc1I [Analog 16, (2R,3S,4S)-4-hydroxy-2-(3-iodo-4-methoxybenzyl)-pyrrolidin-3-yl acetate] | 73.7 ± 1.7 µM | > 1000 µM | > 1000 µM | activity against L. tarentolae translation / anti-protozoan activity (in words) [3]: abolished anti-protozoan activity |
| CC(=O)O[C@@H]1[C@@H](O)CN[C@@H]1Cc1ccc(O)cc1 [Analog 17, (2R,3S,4S)-4-hydroxy-2-(4-hydroxybenzyl)-pyrrolidin-3-yl acetate] | 6.2 ± 0.45 µM | > 200 µM | 53.7 ± 6.1 µM | – |
| CC(=O)O[C@@H]1[C@@H](O)CN[C@@H]1Cc1cc(CN(C)C)c(O)c(CN(C)C)c1 [Analog 19, (2R,3S,4S)-4-hydroxy-2-[3,5-di-(dimethylaminomethyl)-4-hydroxybenzyl]-pyrrolidin-3-yl acetate] | 70.7 ± 7.3 µM | > 200 µM | > 1000 µM | activity against L. tarentolae translation / anti-protozoan activity (in words) [3]: abolished anti-protozoan activity |
| CC(=O)O[C@@H]1[C@@H](O)CN[C@@H]1Cc1cc(CN2CCOCC2)c(O)c(CN2CCOCC2)c1 [Analog 20, (2R,3S,4S)-4-hydroxy-2-[3,5-di-(morpholinomethyl)-4-hydroxybenzyl]-pyrrolidin-3-yl acetate] | > 1000 µM | > 1000 µM | > 1000 µM | activity against L. tarentolae translation / anti-protozoan activity (in words) [3]: abolished anti-protozoan activity |
| CC(=O)O[C@@H]1[C@@H](O)CN[C@@H]1Cc1ccc(OC(C)C)cc1 [Analog 22a, (2R,3S,4S)-4-hydroxy-2-(4-iso-propoxybenzyl)-pyrrolidin-3-yl acetate] | 0.9 ± 0.3 µM | > 200 µM | 1.13 ± 0.12 µM | IC50 ([4]; Leishmania major, unit nM, read-out: IC50 LmF WT): 180 ± 4.69 nM; fold greater selectivity against the different amastigotes relative to host macrophage toxicity ([5]; MTT survival assay): 5–10 fold; host cell toxicity (in words) ([5]; host BMDM cells): without host cell toxicity; effect on E. coli (in words) [2]: no effect; EC50 [6]: 0.0537 µM; IC50 ([7]; Leishmania infantum, unit nM, read-out: IC50 Ldi WT): 122 ± 5.62 nM; IC50 ([8]; Leishmania infantum, read-out: IC50 Ldi Sb-Res): 0.129 ± 0.00316 µM; IC50 ([9]; Leishmania infantum, read-out: IC50 Ldi AmB-Res): 0.119 ± 0.0141 µM; IC50 ([10]; Leishmania infantum, read-out: IC50 Ldi MF-Res): 0.133 ± 0.0078 µM; EC50 [11]: 0.0333 µM |
| CCCCCCCCOc1ccc(C[C@H]2NC[C@H](O)[C@H]2OC(C)=O)cc1 [Analog 22b, (2R,3S,4S)-4-hydroxy-2-(4-octyloxybenzyl)-pyrrolidin-3-yl acetate] | 9.5 ± 3.5 µM | > 200 µM | 33.5 ± 8.2 µM | IC50 [4, 12]: 1750 ± 120 nM; IC50 [7, 13]: 1110 ± 30 nM; IC50 [8, 14]: 1.75 ± 0.08 µM; IC50 [9, 15]: 1.78 ± 0.58 µM; IC50 [10, 16]: 1.83 ± 0.06 µM |
| CC(=O)O[C@@H]1[C@@H](O)CN[C@@H]1Cc1ccc(OCc2ccccc2)cc1 [Analog 22c, (2R,3S,4S)-4-hydroxy-2-(4-benzyloxybenzyl)-pyrrolidin-3-yl acetate] | 0.9 ± 0.2 µM | > 200 µM | 7.96 ± 1.02 µM | – |
| CC(=O)O[C@@H]1[C@@H](O)CN[C@@H]1Cc1ccc(OCC(=O)O)cc1 [Analog 22d, (2R,3S,4S)-4-hydroxy-2-(4-carboxymethyloxybenzyl)-pyrrolidin-3-yl acetate] | – | – | – | IC50 [4, 12]: 16600 ± 2230 nM; IC50 [7, 13]: 14900 ± 2180 nM; IC50 [8, 14]: 16 ± 1.03 µM; IC50 [9, 15]: 19.2 ± 1.24 µM; IC50 [10, 16]: 18.2 ± 2.33 µM |
| CCCCCCCCCCCCCCCCOP(=O)([O-])OCC[N+](C)(C)C [Miltefosine, reference compound] | – | – | – | IC50 [4, 12]: 8470 ± 1180 nM; IC50 [7, 13]: 7160 ± 210 nM; IC50 [8, 14]: 8.21 ± 0.53 µM; IC50 [9, 15]: 30.3 ± 4.28 µM; IC50 [10, 16]: > 200 µM |
| NC[C@@H]1O[C@H](O[C@H]2[C@@H](O)[C@H](O[C@@H]3[C@@H](O)[C@H](N)C[C@H](N)[C@H]3O[C@H]3O[C@H](CO)[C@@H](O)[C@H](O)[C@H]3N)O[C@@H]2CO)[C@H](N)[C@@H](O)[C@@H]1O [Paromomycin, reference compound] | 21 ± 1.1 µM | 0.051 ± 0.005 µM | 3.62 ± 0.09 µM | – |
| Potassium antimonyl tartrate trihydrate [reference compound] | – | – | – | IC50 ([4]; read-out: IC50 (μM) LmF WT): 25000 ± 1130 nM; IC50 ([7]; read-out: IC50 (μM) Ldi WT): 75800 ± 6130 nM; IC50 ([8]; promastigotes, 25 °C, read-out: IC50 (μM) Ldi Sb-Res): > 2000 µM; IC50 ([9]; promastigotes, 25 °C, read-out: IC50 (μM) Ldi AmB-Res): 90.2 ± 8.3 µM; IC50 ([10]; promastigotes, 25 °C, read-out: IC50 (μM) Ldi MF-Res): 85.3 ± 7.1 µM |
